Patent US20080280933A1, “BENZIMIDAZOLYL COMPOUNDS” (priority 2006, published 2008)

Biological target: T1, mGluR2 receptor (metabotropic glutamate receptor 2) (Homo sapiens, UniProt Q14416)
T1 construct: expressed in transfected cells
Assay: mGluR2 Potentiator Screen, FLIPR, EC10-EC20 glutamate challenge
Format: cell-based
Settings: EC50 (uM)
Method in brief: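 HEK cells stably co-expressing mGluR2 and Gα15, kept glutamine-free overnight, were loaded with Fluo-4 plus probenecid and GPT/pyruvate. Compounds (top 10 μM) were added ≥30 min before an EC10–EC20 glutamate challenge. Peak FLIPR fluorescence ratios were curve-fitted, excluding points above maximal effect, with maxima from on-plate standards.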

T1 sequence (Q14416 19-872, species assumed): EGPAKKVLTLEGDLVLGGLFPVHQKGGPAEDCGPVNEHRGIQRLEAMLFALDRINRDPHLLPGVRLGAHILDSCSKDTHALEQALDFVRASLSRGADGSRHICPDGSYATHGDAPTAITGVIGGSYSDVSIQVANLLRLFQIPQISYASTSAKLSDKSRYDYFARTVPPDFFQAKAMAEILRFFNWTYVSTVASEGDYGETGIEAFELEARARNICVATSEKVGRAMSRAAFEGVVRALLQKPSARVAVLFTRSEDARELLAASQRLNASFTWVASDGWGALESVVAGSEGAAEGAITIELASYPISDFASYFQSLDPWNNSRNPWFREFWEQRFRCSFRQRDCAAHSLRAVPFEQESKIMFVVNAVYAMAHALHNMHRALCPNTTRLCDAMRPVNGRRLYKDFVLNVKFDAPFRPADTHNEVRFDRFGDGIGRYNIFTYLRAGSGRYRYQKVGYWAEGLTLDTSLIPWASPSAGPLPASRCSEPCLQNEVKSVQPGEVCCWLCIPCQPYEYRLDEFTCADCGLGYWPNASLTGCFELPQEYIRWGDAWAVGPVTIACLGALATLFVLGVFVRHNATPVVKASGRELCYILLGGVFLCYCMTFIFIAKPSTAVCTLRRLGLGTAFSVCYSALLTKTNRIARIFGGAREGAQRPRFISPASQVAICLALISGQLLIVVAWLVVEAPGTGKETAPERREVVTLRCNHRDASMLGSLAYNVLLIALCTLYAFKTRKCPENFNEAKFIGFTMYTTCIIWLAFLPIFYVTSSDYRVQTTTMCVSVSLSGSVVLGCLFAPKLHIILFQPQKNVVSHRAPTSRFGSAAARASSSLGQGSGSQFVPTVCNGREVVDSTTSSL

Compound | EC50
Cn1c(CN2CCC(C#N)(c3ccccc3)CC2)nc2ccccc21 [compound 77] | > 4.71 µM

Same assay, conditions: listed as 1; read-out: EC50

Compound | EC50
COc1cc(C(F)(F)F)ccc1C1CCN(Cc2nc3ccccc3n2C)CC1 [Entry 354] | > 6.17 µM

Same assay, conditions: mGluR2 potentiator screen, Table 7; read-out: EC50

Compound | EC50
CC(C)COc1ccc(Cl)cc1C1CCN(Cc2nc3ccccc3n2CCF)CC1 [compound 181] | 2.11 µM
FCn1c(CN2CCC(c3cc(Cl)ccc3OCC3CCC3)CC2)nc2ccccc21 [compound 193] | 2.34 µM
COC(=O)[C@H]1CN(Cc2nc3ccccc3n2C)C[C@@H]1c1ccc(Cl)cc1 [compound 156] | 8.55 µM
CC[C@H](C)COc1ccc(Cl)cc1C1CCN(Cc2nc3ccccc3n2CCF)CC1 [compound 173] | 1.7 µM
Cn1c(CN2CCC(c3ccccc3F)CC2)nc2c(Br)cccc21 [compound 157] | 0.836 µM
COc1ccc(OC)c(C2CCN(Cc3nc4c(Br)cccc4n3C)CC2)c1 [compound 165] | 2.66 µM
CC1CC1COc1ccc(Cl)cc1C1CCN(Cc2nc3ccccc3n2C)CC1 (stereo not shown) [compound 199] | 0.39 µM
CC1(COc2ccc(Cl)cc2C2CCN(Cc3nc4ccccc4n3CCF)CC2)COC1 [compound 212] | 10.5 µM
CC[C@H](C)COc1ccc(Cl)cc1C1CCN(Cc2nc3ccccc3n2CF)CC1 [compound 175] | 8.76 µM
Clc1ccc(OCC2CCOC2)c(C2CCN(Cc3nc4ccccc4n3C3CC3)CC2)c1 (stereo not shown) [compound 202] | 2.88 µM
CC1(COc2ccc(Cl)cc2C2CCN(Cc3nc4ccccc4n3CF)CC2)COC1 [compound 211] | 8.22 µM

Same assay, conditions: read-out: EC50

Compound | EC50
2-((4-(2-Fluorophenyl)piperidin-1-yl)methyl)-1-methyl-1H-benzo[d]imidazole-5-carbonitrile [Entry 272] | 0.439 µM
CCCCN1CC2(CCN(Cc3nc4ccccc4n3C)CC2)c2cc(C)ccc21 [compound 139] | 1.97 µM
Cn1c(CN2CCC(c3ccccc3F)CC2)nc2cccc(C#N)c21 [compound 307] | 0.0314 µM
Fc1ccc(C(F)(F)F)cc1C1CCN(Cc2nc3ccccc3n2C2CC2)CC1 [compound 327] | 1.98 µM
C[C@@H]1CN(Cc2nc3ccccc3n2C)CC[C@@H]1c1ccc(C(F)(F)F)cc1 (relative stereo) [compound 404] | 0.471 µM
COc1ccccc1C1CCN(Cc2nc3cc(C(=O)O)ccc3n2C)CC1 [Entry 288, 2-[4-(2-Methoxy-phenyl)-piperidin-1-ylmethyl]-1-methyl-1H-benzoimidazole-5-carboxylic acid] | 1.68 µM
COc1ccccc1C1CCN(Cc2nc3ccccc3n2CCF)CC1 [compound 240] | 0.146 µM
Cn1c(CN2CCC(c3ccc(C(F)(F)F)cc3)CC2)nc2c(F)cccc21 [compound 314] | 0.0438 µM
Cc1ccc2c(c1)C1(CCN(Cc3nc4ccccc4n3C)CC1)CN2C(=O)c1ccco1 [compound 37] | 1.82 µM
Cc1ccc2c(c1)C1(CCN(Cc3nc4ccccc4n3C)CC1)CN2CCC(C)C [compound 120] | 2.7 µM
Cn1c(CN2CCC(c3ccc(Cl)c(F)c3)CC2)nc2ccccc21 [compound 450] | 0.079 µM
2-((4-(2-Fluorophenyl)piperidin-1-yl)methyl)-3-methyl-3H-benzo[d]imidazole-5-carbonitrile [Entry 275] | 2.62 µM
Cn1c(CN2CCC(c3ccccc3F)CC2)nc2cc(Br)ccc21 [compound 269] | 0.445 µM
Cn1c(CN2CCC(c3ccccc3O[C@H]3CCOC3)CC2)nc2ccccc21 [compound 101] | 5.72 µM
C[C@@H]1CN(Cc2nc3ccccc3n2C)CC[C@@H]1c1ccc(C(F)(F)F)cc1Cl (relative stereo) [compound 467] | 0.0531 µM
CCC(C)CN1CC2(CCN(Cc3nc4ccccc4n3C)CC2)c2ccccc21 (stereo not shown) [compound 133] | 6.16 µM
Cn1c(CN2CCC(c3ccccc3F)CC2)nc2cc(C(N)=O)ccc21 [Entry 363, 2-((4-(2-Fluorophenyl)piperidin-1-yl)methyl)-1-methyl-1H-benzo[d]imidazol-5-carboxamide] | 2.02 µM
C#CCOc1ccc(Cl)cc1C1CCN(Cc2nc3ccccc3n2C2CC2)CC1 [compound 235] | 0.258 µM
Cn1c(CN2CCC3(CC2)CN(CC2CCCO2)c2ccc(Cl)cc23)nc2ccccc21 (stereo not shown) [compound 107] | 6.65 µM
C[C@@H]1CN(Cc2nc3ccccc3n2C)CC[C@@H]1c1ccc(F)c(F)c1 (single isomer, unassigned) [Entry 473, 2-{[Cis-4-(3,4-Difluoro-phenyl)-3-methyl-piperidin-1-yl]methyl}-1-methyl-1H-benzoimidazole] | 1.03 µM
COc1ccccc1C1CCN(Cc2nc3ccccc3n2C)CC1 [compound 47] | 0.0771 µM
COc1ccccc1C1CCN(Cc2nc3cc(Br)ccc3n2C)CC1 [compound 263] | 0.242 µM

Compound | EC50
Cn1c(CN2CCC(c3ccccc3C(F)(F)F)CC2)nc2c(F)cccc21 [compound 394] | 0.232 µM
Cn1c(CN2CCC(c3ccccc3C#N)CC2)nc2ccccc21 [compound 416] | 0.168 µM
CC(=O)N1CC2(CCN(Cc3nc4ccccc4n3C)CC2)c2cc(Cl)ccc21 [compound 26] | 2.45 µM
COc1ccccc1C1(OC)CCN(Cc2nc3ccccc3n2C)CC1C (stereo not shown) [compound 332] | 5.22 µM
Cn1c(CN2CCC(c3ccccc3C(F)(F)F)CC2)nc2cc(C#N)ccc21 [compound 403] | 0.224 µM
Cn1c(CN2CCC(c3ccccc3OC(F)(F)F)CC2)nc2ccccc21 [compound 413] | 0.0776 µM
Cc1cc(C)c2c(c1)C1(CCN(Cc3nc4ccccc4n3C)CC1)CN2CC1CCCO1 (stereo not shown) [compound 123] | 5.03 µM
2-((4-(2-Fluorophenyl)piperidin-1-yl)methyl)-1-methyl-1H-benzo[d]imidazol-5-carboxamide [Entry 363] | 5.21 µM
Cn1c(CN2CCC(c3ccc(C(F)(F)F)cc3)CC2)nc2cc(F)ccc21 [compound 350] | 0.147 µM
COc1cc(C(F)(F)F)ccc1C1CCN(Cc2nc3ccccc3n2C)CC1 [Entry 354] | < 0.0193 µM
FCn1c(CN2CCC(c3ccc(C(F)(F)F)cc3)CC2)nc2ccccc21 [compound 255] | 0.164 µM
COC(=O)CCC(=O)N1CC2(CCN(Cc3nc4ccccc4n3C)CC2)c2cc(C)ccc21 [compound 34] | 3.15 µM
Fc1ccccc1C1CCN(Cc2nc3ccccc3n2C2CC2)CC1 [compound 251] | 1.34 µM
Cn1c(CN2CCC(c3ccc(C(F)(F)F)cc3F)CC2)nc2cc(C#N)ccc21 [compound 391] | 0.0444 µM
CCN1CC2(CCN(Cc3nc4ccccc4n3C)CC2)c2cc(F)ccc21 [compound 114] | 2.38 µM
C[C@@H]1CN(c2cccc(C3CCN(Cc4nc5ccccc5n4C)CC3)c2)C[C@H](C)O1 [compound 83] | 0.82 µM
Cn1c(CN2CCC(c3cc(F)ccc3F)CC2)nc2ccccc21 [compound 311] | 0.0161 µM
C[C@@H]1CN(Cc2nc3ccccc3n2C)CC[C@@H]1c1ccc(Cl)cc1Cl (relative stereo) [compound 468] | 0.0862 µM
Cn1c(CN2CCC(c3ccc(C(F)(F)F)cc3F)CC2)nc2cc(F)ccc21 [compound 353] | < 0.0402 µM
Cc1ccc2c(c1)C1(CCN(Cc3nc4ccccc4n3C)CC1)CN2CC1CC1 [compound 142] | 3.02 µM
CC1CN(CCOc2ccccc2C2CCN(Cc3nc4ccccc4n3C)CC2)CC(C)O1 (stereo not shown) [compound 85] | 1.37 µM
Cn1c(CN2CCC(c3cccc(C(C)(C)C)c3)CC2)nc2ccccc21 [compound 419] | 0.149 µM

Compound | EC50
Cn1c(CN2CCC3(CC2)CN(C(=O)c2ccco2)c2ccc(Cl)cc23)nc2ccccc21 [compound 46] | > 4.86 µM
CC1CN(Cc2nc3ccccc3n2C)CC(C)C1(O)c1ccccc1 (stereo not shown) [compound 82] | > 7.44 µM
COc1cc(C(F)(F)F)ccc1C1CCN(Cc2nc3ccccc3n2C)CC1 [compound 355] | 0.0667 µM
Cn1c(CN2CCC(c3ccccc3O)CC2)nc2ccccc21 [compound 265] | 1.44 µM
COc1ccc(Cl)cc1C1CCN(Cc2nc3ccccc3n2CF)CC1 [compound 232] | 0.396 µM
Cn1c(CN2CCC3(CC2)CN(CC2CCCO2)c2ccc(F)cc23)nc2ccccc21 (stereo not shown) [compound 117] | > 9.01 µM
Cn1c(CN2CCC(c3cccc(Cl)c3)CC2)nc2ccccc21 [compound 417] | 0.18 µM
COc1ccccc1C1CCN(Cc2nc3c(Cl)cccc3n2C)CC1 [compound 270] | 0.838 µM
COc1ccccc1C1CCCN(Cc2nc3ccccc3n2C)CC1 (stereo not shown) [compound 304] | 0.276 µM
C[C@H]1C[C@@H](c2ccc(C(F)(F)F)cc2)CCN1Cc1nc2ccccc2n1C (relative stereo) [compound 457] | 0.454 µM
C[C@@H]1CN(Cc2nc3ccccc3n2C)CC[C@@H]1c1ccc(F)cc1F (relative stereo) [compound 463] | 0.0407 µM
CCOCCCOc1ccccc1C1CCN(Cc2nc3ccccc3n2C)CC1 [compound 91] | 1.4 µM
Cn1c(CN2CCC(F)(c3ccc(F)cc3)CC2)nc2cccc(F)c21 [compound 439] | 0.46 µM
CC(C)CN1CC2(CCN(Cc3nc4ccccc4n3C)CC2)c2ccccc21 [compound 106] | 2.58 µM
COc1ccccc1C1CCN(Cc2nc3cc(C)ccc3n2C)CC1 [compound 282] | 0.0416 µM
C[C@@H]1CN(Cc2ccc(C3CCN(Cc4nc5ccccc5n4C)CC3)cc2)C[C@H](C)O1 [compound 455] | 2.59 µM
Cc1noc(C)c1C(=O)N1CC2(CCN(Cc3nc4ccccc4n3C)CC2)c2ccccc21 [compound 54] | > 5.56 µM
Cn1c(CN2CCC(c3ccc(Cl)cc3F)CC2)nc2ccccc21 [compound 451] | 0.00757 µM
CCN1CC2(CCN(Cc3nc4ccccc4n3C)CC2)c2cc(Cl)ccc21 [compound 105] | 3.37 µM
CCOc1ccc(Cl)cc1C1CCN(Cc2nc3ccccc3n2CCF)CC1 [compound 227] | 0.21 µM
COc1ccccc1[C@H]1CCN(Cc2nc3ccccc3n2C)C[C@H]1C (relative stereo) [compound 337] | 0.323 µM
COCn1c(CN2CCC(c3cc(C(F)(F)F)ccc3F)CC2)nc2ccccc21 [compound 330] | 0.969 µM
